Experimental findings from the NIST ThermoML archive (doi:10.1016/j.fluid.2015.03.036) are described below.

Numbers after ± are expanded uncertainties.

A short description of series [1]: Molar enthalpy of transition or fusion. The settings on record: Crystal; DSC.
A short description of series [2]: Solid-liquid equilibrium temperature. The settings on record: 100 kPa; Crystal; DTA.

For the compound `O=P(Nc1ccccc1)(Oc1ccccc1)Oc1ccccc1` [diphenyl anilinophosphonate], in series [1], the “Molar enthalpy of transition or fusion” value turned out to be 0.0171 ± 0.0406 kcal/mol. Besides, in series [2], the Solid-liquid equilibrium temperature was 406.91 ± 0.32 K.
